We go through 13 compounds from patent US20080242663A1, “NOVEL PYRIMIDINE DERIVATIVES 698” (ASTRAZENECA AB, priority 2007, published 2008).

This experiment deals with T1, recombinant EphB4 (Homo sapiens, UniProt P54760).
T1 construct: amino acids 563-987; Swiss-Prot Acc; No. P54760; purchased ProQinase GmbH 0178-0000-3
T1 sequence (P54760 563-987): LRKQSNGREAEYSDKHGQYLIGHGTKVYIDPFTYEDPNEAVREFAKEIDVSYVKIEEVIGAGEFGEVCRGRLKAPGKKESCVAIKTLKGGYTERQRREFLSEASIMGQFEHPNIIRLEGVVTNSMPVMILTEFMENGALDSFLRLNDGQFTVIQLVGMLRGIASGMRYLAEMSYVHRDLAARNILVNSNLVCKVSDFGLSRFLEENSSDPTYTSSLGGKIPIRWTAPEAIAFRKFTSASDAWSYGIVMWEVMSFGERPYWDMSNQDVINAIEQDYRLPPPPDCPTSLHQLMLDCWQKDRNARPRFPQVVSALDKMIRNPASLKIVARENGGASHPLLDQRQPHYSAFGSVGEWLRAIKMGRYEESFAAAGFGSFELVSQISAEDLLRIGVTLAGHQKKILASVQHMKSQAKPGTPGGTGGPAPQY
The experiment in a line: In vitro EphB4 enzyme assay (Alphascreen). The format is biochemical. In short, it runs like this: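 Recombinant EphB4 phosphorylated biotin-poly-GAT with Mg-ATP for 1 hr at room temperature; EDTA stop, then Alphascreen donor/acceptor (anti-phosphotyrosine) beads for 20 hrs in the dark. After minimum subtraction, signal plotted against compound concentration to derive IC50.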
A word on the IC50: it is the concentration needed to halve the response being measured. For `COc1ccc(C)c(N(C)c2ccnc(Nc3cc(C(=O)N(C)C)cc(N4CCOCC4)c3)n2)c1` [Example 12.3, 3-[[4-[(5-methoxy-2-methyl-phenyl)-methyl-amino]pyrimidin-2-yl]amino]-N,N-dimethyl-5-morpholin-4-yl-benzamide], the IC50 came out at 455 nM. Next, `CN(c1ccnc(Nc2cc(N3CCC(O)CC3)cc(S(C)(=O)=O)c2)n1)c1ccc(F)c(Cl)c1F` [Example 2.11, 1-[3-[[4-[(3-chloro-2,4-difluoro-phenyl)-methyl-amino]pyrimidin-2-yl]amino]-5-methylsulfonyl-phenyl] piperidin-4-ol]: 106 nM; `Cc1ccc(N(C)c2ccnc(Nc3cc(N4CCOCC4)cc(N4CCOCC4)c3)n2)cc1Cl` [Example 15.19, N′-(3-chloro-4-methyl-phenyl)-N-(3,5-dimorpholin-4-ylphenyl)-N′-methyl-pyrimidine-2,4-diamine]: 1730 nM; `CN1CCN(Cc2cc(Nc3nccc(N(C)c4ccc(F)c(Cl)c4F)n3)cc(N3CCOCC3)c2)CC1` [Example 2.18, N′-(3-chloro-2,4-difluoro-phenyl)-N′-methyl-N-[3-[(4-methylpiperazin-1-yl)methyl]-5-morpholin-4-yl-phenyl] pyrimidine-2,4-diamine]: 46.1 nM. Next, `COCCN(c1ccnc(Nc2cc(N3CCOCC3)cc(N3CCOCC3)c2)n1)c1cc(OC)ccc1C` [Example 22.1, N-(3,5-dimorpholin-4-ylphenyl)-N′-(2-methoxyethyl)-N′-(5-methoxy-2-methyl-phenyl)pyrimidine-2,4-diamine]: 1480 nM; `CN(c1ccnc(Nc2cc(N3CCOCC3)cc(N3CCOCC3)c2)n1)c1cc(F)ccc1F` [Example 15.8, N′-(2,5-difluorophenyl)-N-(3,5-dimorpholin-4-ylphenyl)-N′-methyl-pyrimidine-2,4-diamine]: 338 nM; `Cc1ccc(CO)cc1N(C)c1ccnc(Nc2cc(N3CCOCC3)cc(N3CC[C@@H](O)C3)c2)n1` [Example 7.10, (3R)-1-[3-[[4-[[5-(hydroxymethyl)-2-methyl-phenyl]-methyl-amino]pyrimidin-2-yl]amino]-5-morpholin-4-yl-phenyl]pyrrolidin-3-ol]: 13.5 nM. Turning to `CN(c1ccnc(Nc2cc(N3CCOCC3)cc(N3CCOCC3)c2)n1)c1ccc(Cl)cc1F` [Example 15.17, N′-(4-chloro-2-fluoro-phenyl)-N-(3,5-dimorpholin-4-ylphenyl)-N′-methyl-pyrimidine-2,4-diamine], the half-maximal inhibitory concentration (IC50) was found to be 1150 nM.

Consider `CN(c1cccc(Cl)c1)c1ccnc(Nc2cc(C(=O)NC3CCC3)cc(N3CCOCC3)c2)n1` [Example 19.13, 3-[[4-[(3-chlorophenyl)-methyl-amino]pyrimidin-2-yl]amino]-N-cyclobutyl-5-morpholin-4-yl-benzamide], for which the IC50 is 2080 nM.

Regarding `CC(=O)c1ccc(C)c(N(C)c2ccnc(Nc3cc(N4CCOCC4)cc(N4CCOCC4)c3)n2)c1` [Example 25.5, 1-(3-((2-(3,5-dimorpholinophenylamino)pyrimidin-4-yl)(methyl)amino)-4-methylphenyl)ethanone], the IC50 was found to be 127 nM. In the case of `Cc1cc(C)cc(N(C)c2ccnc(Nc3cc(N4CCOCC4)cc(N4CCOCC4)c3)n2)c1` [Example 10.8, N′-(3,5-dimethylphenyl)-N-(3,5-dimorpholin-4-ylphenyl)-N′-methyl-pyrimidine-2,4-diamine], the IC50 is 1100 nM. For `CCN(c1ccnc(Nc2cc(N3CCOCC3)cc(N3CCOCC3)c2)n1)c1cc(OC)ccc1C` [Example 22.3, N-(3,5-dimorpholin-4-ylphenyl)-N′-ethyl-N′-(5-methoxy-2-methyl-phenyl)pyrimidine-2,4-diamine] the value was 1190 nM; for `Cc1cccc(CO)c1N(C)c1ccnc(Nc2cc(N3CCOCC3)cc(N3CCOCC3)c2)n1` [Example 25.1, (2-((2-(3,5-dimorpholinophenylamino)pyrimidin-4-yl)(methyl)amino)-3-methylphenyl)methanol], 52.8 nM.
